These results are taken from US12454510B2, “Isophthalamide compound and use thereof” (METISA BIOTECHNOLOGY CO., LTD, priority 2019, dated 2025).

Common to all, as to type: in vivo
In assay [1] the test system is Leucania separata. The experiment in a line: Insecticidal activity against Leucania separata, airbrush spray on corn leaf sections. Particulars: Mythimna separata, 72 h; dose 0.05 mg/L, 3 days after the treatment, 3rd instar larvae; read-out: lethality rate against Leucania separata. Here is the method: (§1) After being dissolved in a mixed solvent of acetone/methanol (1:1), the test compound was diluted with water containing 0.1% (wt) Tween 80 to the desired concentration.
(§2) With Leucania separata, Plutella xylostella, and Chilo suppressalis as targets, airbrush spray method was used for the determination of the insecticidal activity.
(§3) Determination method: Corn leaves were cut into 2 cm leaf sections, and Airbrush spray treatment was carried out at a pressure of 10 psi (approximately 0.7 kg/cm^2) on the front and back sides of each leaf section, with a spray volume of the compound to be tested of 0.5 ml. After drying in the shade, 10 of 3rd instar larvae were introduced for each treatment, and each treatment was repeated 3 times. After the treatment, it was placed in an observation room at 25° C. and a relative humidity of 60-70%, and 3 days after the treatment, the number of surviving insects was investigated, and the mortality rate was calculated.

Assay [2] deals with Plutella xylostella. The assay is described as follows: Insecticidal activity against Plutella xylostella, airbrush spray on cabbage leaf discs. The conditions noted are these: foliar, 72 h; for pest or weed control at 5 µg/mL: 5 mg/L, Table 5, read-out: Lethality rate (%, 3 days after the treatment) 5 mg/L. The method, then: as §1, §2
as §3, with “Cabbage” for “Corn”, “punched” for “cut”, “into leaf discs with a diameter of” for “into”, “with a puncher,” for “leaf sections,”, “disc,” for “section,”, “times for.” for “times.”

In assay [3] the test system is Chilo suppressalis. The assay is described as follows: Insecticidal activity against Chilo suppressalis, sprayed Oryza sativa seedlings/stalks. The conditions noted are these: for pest or weed control at 0.25 µg/mL / pest or weed control at 0.5 µg/mL / pest or weed control at 1 µg/mL: Chilo suppressalis, 72 h, 3 days after the treatment, 3rd instar larvae, read-out: lethality rate against Chilo suppressalis; for pest or weed control at 0.25 µg/mL: dose 0.25 mg/L; for pest or weed control at 0.5 µg/mL: dose 0.5 mg/L; for pest or weed control at 1 µg/mL: dose 1 mg/L. The method, then: as §1, §2
Determination method: 1) Preparation of Oryza sativa seedlings: Oryza sativa was cultivated in a constant temperature room (a temperature of 26-28V, a relative humidity of about 60-80%, and a light illumination of 16 hL:8 hD) in a small plastic cup with a diameter of 4.5 cm and a height of 4 cm, and when the Oryza sativa grew up to the 4-5 leaf stage, robust and consistent Oryza sativa seedlings were selected for chemical treatment, and 3 repetitions were performed for each treatment. 2) Preparation for test insects: Chilo suppressalis at 3rd instar larvae were raised continuously indoors. 3) The Oryza sativa stems were sprayed and insects were introduced. Spraying was performed uniformly on the whole plant of the Oryza sativa seedlings, with 15 ml of compound solution for each treatment. The blank control was treated first, and then the above operations were repeated in the order of the test concentration from low to high. After the Oryza sativa seedlings were sprayed, they were placed in a cool place to dry the liquid, and about 5 cm of stalks at the base of the stems were cut and fed to the test insects. A glass petri dish with a diameter of 90 mm was placed with filter paper at the bottom of the dish, and then was moisturized by adding water. After that, about 5 rice stalks and 10 larvae were placed in each dish, and the petri dish was sealed with a non-woven fabric and placed in a constant temperature room for cultivation. The number of remaining live insects was investigated 3 days after the treatment.

Where [4] appears, read: dose 0.05 mg/L, 3 days after the treatment, 3rd instar larvae, read-out: lethality rate against Plutella xylostella.
[5] abbreviates: dose 0.5 mg/L, 3 days after the treatment, 3rd instar larvae, read-out: lethality rate against Plutella xylostella.
The mark [6] stands for this setting: dose 1 mg/L, 3 days after the treatment, 3rd instar larvae, read-out: lethality rate against Plutella xylostella.
The mark [7] stands for this setting: 0.05 mg/L, parallel comparison test, Table 5, read-out: Lethality rate (%, 3 days after the treatment) 0.05 mg/L.
[8] abbreviates: 0.5 mg/L, parallel comparison test, Table 5, read-out: Lethality rate (%, 3 days after the treatment) 0.5 mg/L.
Where [9] appears, read: 1 mg/L, parallel comparison test, Table 5, read-out: Lethality rate (%, 3 days after the treatment) 1 mg/L.

Like-named read-outs stand apart in the source and are kept apart here.

In the case of `N#CCCCCN(C(=O)c1ccc(F)nc1)c1cccc(C(=O)Nc2c(Br)cc(C(F)(C(F)(F)F)C(F)(F)F)cc2C(F)(F)F)c1F` [Compound 12], the pest or weed control at 0.05 µg/mL in assay [1] and in assay [2] (setting [4]) was no less than 90% throughout. Further, the pest or weed control at 0.5 µg/mL in assay [2] (setting [5]) and in assay [3] was no less than 90% throughout. Moreover, the pest or weed control at 1 µg/mL in assay [2] (setting [6]) and in assay [3] was no less than 90% each time. The pest or weed control at 0.25 µg/mL in assay [3] was no less than 90%.
As to `N#CCCN(C(=O)c1ccc(C(F)(F)F)nc1)c1cccc(C(=O)Nc2c(Br)cc(C(F)(C(F)(F)F)C(F)(F)F)cc2C(F)(F)F)c1F` [Compound 26], the figures for the pest or weed control at 0.05 µg/mL in assay [1] and in assay [2] (setting [7]) were no less than 90% and 73.3%, respectively. In addition, the pest or weed control at 0.5 µg/mL in assay [2] (setting [8]) is 96.7%; in assay [2] (setting [5]) it was no less than 90%; in assay [3], no less than 90%. The results for the pest or weed control at 1 µg/mL in assay [2] (setting [9]), in assay [2] (setting [6]) and in assay [3] were 100%, no less than 90% and no less than 90%, respectively. In addition, the pest or weed control at 5 µg/mL in assay [2] (parallel comparison test) is 100%. Further, in assay [3], the pest or weed control at 0.25 µg/mL is no less than 90%.
`N#CCN(C(=O)c1ccc(F)nc1)c1cccc(C(=O)Nc2c(Br)cc(C(F)(C(F)(F)F)C(F)(F)F)cc2Br)c1F` [Compound 1]: the pest or weed control at 0.05 µg/mL in assay [1] was no less than 90%. Further, the pest or weed control at 1 µg/mL in assay [2] (setting [6]) and in assay [3] was no less than 90% in each case.
Consider `N#CCN(C(=O)c1ccc(C(F)(F)F)nc1)c1cccc(C(=O)Nc2c(Br)cc(C(F)(C(F)(F)F)C(F)(F)F)cc2Br)c1F` [Compound 17], for which the pest or weed control at 0.05 µg/mL in assay [1] was no less than 90%. The pest or weed control at 1 µg/mL in assay [2] (setting [6]) and in assay [3] was no less than 90% throughout.
Consider `N#CCCCCN(C(=O)c1ccc(C(F)(F)F)nc1)c1cccc(C(=O)Nc2c(I)cc(C(F)(C(F)(F)F)C(F)(F)F)cc2C(F)(F)F)c1F` [Compound 32], for which the pest or weed control at 0.05 µg/mL in assay [1] is no less than 90%. Besides, the pest or weed control at 0.5 µg/mL in assay [2] (setting [5]) and in assay [3] was no less than 90% throughout. Also, the pest or weed control at 1 µg/mL in assay [2] (setting [6]) and in assay [3] was no less than 90% throughout.
`N#CCCCCN(C(=O)c1ccc(C(F)(F)F)nc1)c1cccc(C(=O)Nc2c(Br)cc(C(F)(C(F)(F)F)C(F)(F)F)cc2C(F)(F)F)c1F` [Compound 28]: the pest or weed control at 0.05 µg/mL in assay [1] was no less than 90%. Further, the pest or weed control at 0.5 µg/mL in assay [2] (setting [5]) and in assay [3] was no less than 90% in each case. In addition, the pest or weed control at 1 µg/mL in assay [2] (setting [6]) and in assay [3] was no less than 90% in each case.
As for `N#CCN(C(=O)c1ccc(F)nc1)c1cccc(C(=O)Nc2c(I)cc(C(F)(C(F)(F)F)C(F)(F)F)cc2C(F)(F)F)c1F` [Compound 13], the pest or weed control at 0.05 µg/mL in assay [1] and in assay [2] (setting [4]) was no less than 90% in each case. For the same compound, the pest or weed control at 0.5 µg/mL in assay [2] (setting [5]) and in assay [3] was no less than 90% each time. Besides, the pest or weed control at 1 µg/mL in assay [2] (setting [6]) and in assay [3] was no less than 90% throughout. Moreover, in assay [3], the pest or weed control at 0.25 µg/mL was no less than 90%.
In the case of `N#CCCN(C(=O)c1ccc(F)nc1)c1cccc(C(=O)Nc2c(Br)cc(C(F)(C(F)(F)F)C(F)(F)F)cc2I)c1F` [Compound 6], the pest or weed control at 0.05 µg/mL in assay [1] was no less than 90%. Also, the pest or weed control at 1 µg/mL in assay [2] (setting [6]) and in assay [3] was no less than 90% in each case.
Regarding `N#CCN(C(=O)c1ccc(F)nc1)c1cccc(C(=O)Nc2c(Br)cc(C(F)(C(F)(F)F)C(F)(F)F)cc2I)c1F` [Compound 5], in assay [1], the pest or weed control at 0.05 µg/mL is no less than 90%. In addition, the pest or weed control at 1 µg/mL in assay [2] (setting [6]) and in assay [3] was no less than 90% in each case.
For `N#CCCCCN(C(=O)c1ccc(F)nc1)c1cccc(C(=O)Nc2c(I)cc(C(F)(C(F)(F)F)C(F)(F)F)cc2C(F)(F)F)c1F` [Compound 16], the pest or weed control at 0.05 µg/mL in assay [1] and in assay [2] (setting [4]) was no less than 90% in each case. For the same compound, the pest or weed control at 0.5 µg/mL in assay [2] (setting [5]) and in assay [3] was no less than 90% each time. The pest or weed control at 1 µg/mL in assay [2] (setting [6]) and in assay [3] was no less than 90% throughout. Moreover, in assay [3], the pest or weed control at 0.25 µg/mL is no less than 90%.
Take `N#CCCCCN(C(=O)c1ccc(F)nc1)c1cccc(C(=O)Nc2c(Br)cc(C(F)(C(F)(F)F)C(F)(F)F)cc2Br)c1F` [Compound 4]: the pest or weed control at 0.05 µg/mL in assay [1] was no less than 90%. Further, the pest or weed control at 1 µg/mL in assay [2] (setting [6]) and in assay [3] was no less than 90% each time.
On to `N#CCCN(C(=O)c1ccc(F)nc1)c1cccc(C(=O)Nc2c(Br)cc(C(F)(C(F)(F)F)C(F)(F)F)cc2C(F)(F)F)c1F` [Compound 10], for which the pest or weed control at 0.05 µg/mL in assay [1] was no less than 90%; in assay [2] (setting [7]), 100%; in assay [2] (setting [4]) it was no less than 90%. Moreover, the pest or weed control at 0.5 µg/mL in assay [2] (setting [8]) was 100%; in assay [2] (setting [5]), no less than 90%; in assay [3], no less than 90%. Besides, the pest or weed control at 1 µg/mL is 100% in assay [2] (setting [9]), no less than 90% in assay [2] (setting [6]) and no less than 90% in assay [3]. Besides, the pest or weed control at 5 µg/mL in assay [2] (parallel comparison test) came out at 100%. In addition, in assay [3] (0.5 mg/L, parallel comparison test, Table 6), the “Lethality rate (%, 3 days after the treatment) 0.5 mg/L” value turned out to be 100%. Besides, in assay [3] (1 mg/L, parallel comparison test, Table 6), the “Lethality rate (%, 3 days after the treatment) 1 mg/L” value came out at 100%. Also, in assay [3] (10 mg/L, parallel comparison test, Table 6), the “Lethality rate (%, 3 days after the treatment) 10 mg/L” value turned out to be 100%. Also, the pest or weed control at 0.25 µg/mL in assay [3] is no less than 90%.
Turning to `N#CCN(C(=O)c1ccc(F)nc1)c1cccc(C(=O)Nc2c(Br)cc(C(F)(C(F)(F)F)C(F)(F)F)cc2C(F)(F)F)c1F` [Compound 9], the pest or weed control at 0.05 µg/mL in assay [1] and in assay [2] (setting [4]) was no less than 90% throughout. Besides, the pest or weed control at 0.5 µg/mL in assay [2] (setting [5]) and in assay [3] was no less than 90% throughout. Also, the pest or weed control at 1 µg/mL in assay [2] (setting [6]) and in assay [3] was no less than 90% throughout. Further, in assay [3], the pest or weed control at 0.25 µg/mL was no less than 90%.
Consider `N#CCCCN(C(=O)c1ccc(F)nc1)c1cccc(C(=O)Nc2c(Br)cc(C(F)(C(F)(F)F)C(F)(F)F)cc2C(F)(F)F)c1F` [Compound 11], for which the pest or weed control at 0.05 µg/mL in assay [1] and in assay [2] (setting [4]) was no less than 90% throughout. The pest or weed control at 0.5 µg/mL in assay [2] (setting [5]) and in assay [3] was no less than 90% in each case. For the same compound, the pest or weed control at 1 µg/mL in assay [2] (setting [6]) and in assay [3] was no less than 90% in each case. The pest or weed control at 0.25 µg/mL in assay [3] is no less than 90%.
For `N#CCCN(C(=O)c1ccc(F)nc1)c1cccc(C(=O)Nc2c(I)cc(C(F)(C(F)(F)F)C(F)(F)F)cc2C(F)(F)F)c1F` [Compound 14], the pest or weed control at 0.05 µg/mL in assay [1] and in assay [2] (setting [4]) was no less than 90% each time. The pest or weed control at 0.5 µg/mL in assay [2] (setting [5]) and in assay [3] was no less than 90% each time. Further, the pest or weed control at 1 µg/mL in assay [2] (setting [6]) and in assay [3] was no less than 90% throughout. The pest or weed control at 0.25 µg/mL in assay [3] was no less than 90%.
`N#CCCCN(C(=O)c1ccc(F)nc1)c1cccc(C(=O)Nc2c(I)cc(C(F)(C(F)(F)F)C(F)(F)F)cc2C(F)(F)F)c1F` [Compound 15]: the pest or weed control at 0.05 µg/mL in assay [1] and in assay [2] (setting [4]) was no less than 90% in each case. Further, the pest or weed control at 0.5 µg/mL in assay [2] (setting [5]) and in assay [3] was no less than 90% each time. For the same compound, the pest or weed control at 1 µg/mL in assay [2] (setting [6]) and in assay [3] was no less than 90% throughout. For the same compound, in assay [3], the pest or weed control at 0.25 µg/mL is no less than 90%.
